Measured values from ChEMBL document CHEMBL6153174, “Design and Synthesis of Novel Deazapurine DNMT 1 Inhibitors with In Vivo Efficacy in DLBCL” (J Med Chem, 2025).
Activity calls are given as the source filed them. The rule behind the calls is not given here.

Legend:
[1] = system: Jurkat; experiment: Antiproliferative activity against human Jurkat cells assessed as inhibition of cell viability measured after 72 hrs by MTT assay; format: functional, cell-based
[2] = system: U-937; experiment: Antiproliferative activity against human U-937 cells assessed as inhibition of cell viability measured after 72 hrs by MTT assay; format: functional, cell-based; conditions: U-937, 72 h
[3] = system: DOHH-2; experiment: Induction of cell cycle arrest in human DOHH-2 cells assessed as accumulation of cells at S phase at 1.0 uM incubated for 24 hrs by PI staining based flow cytometry analysis (reference value: 40.7%); format: functional
[4] = system: HepG2; experiment: Antiproliferative activity against human HepG2 cells assessed as inhibition of cell viability measured after 72 hrs by MTT assay; format: functional, cell-based; conditions: HepG2, 72 h
[5] = Terminal elimination half life in Sprague-Dawley rat at 10 mg/kg, po measured upto 24 hrs by LC/MS/MS analysis; format: ADME, organism-based; conditions: in vivo, read-out: beta t1/2 (converted)
[6] = molecular target: T1, DNA (cytosine-5)-methyltransferase 1 (Homo sapiens, UniProt P26358); experiment: Inhibition of DNMT1 in human DOHH-2 cells assessed as inhibition of 5-methylcytosine level at 10 to 1000 nM incubated for 48 hrs by Western blot analysis; format: cell-based; conditions: dose 10-1000 nM
[7] = system: DOHH-2; experiment: Induction of cell cycle arrest in human DOHH-2 cells assessed as accumulation of cells at G2-M phase at 1.0 uM incubated for 24 hrs by PI staining based flow cytometry analysis (reference value: 27.8%); format: functional
[8] = system: MOLM-13; experiment: Antiproliferative activity against human MOLM-13 cells assessed as inhibition of cell viability measured after 72 hrs by MTT assay; format: functional, cell-based; conditions: MOLM-13, 72 h
[9] = Antitumor activity against human TMD8 cells harbouring TP53 mutant xenografted in mouse model assessed as body weight change at 10 mg/kg, iv administered three times a week relative to control; format: functional
[10] = system: MV4-11; experiment: Antiproliferative activity against human MV4-11 cells assessed as inhibition of cell viability measured after 72 hrs by MTT assay; format: functional, cell-based; conditions: MV4-11, 72 h
[11] = system: TMD8; experiment: Induction of cell cycle arrest in human TMD8 cells assessed as accumulation of cells at G2/M phase at 1.0 uM incubated for 24 hrs by PI staining based flow cytometry analysis (reference value: 20.4%); format: functional
[12] = Antitumor activity against human TMD8 cells harbouring […] xenografted in mouse model assessed as body weight change at 10 mg/kg, iv administered three times a week relative to control; format: functional
[13] = system: U2932; experiment: Antiproliferative activity against human U2932 cells assessed as inhibition of cell viability measured after 72 hrs by MTT assay; format: functional, cell-based; conditions: U2932, 72 h
[14] = system: DOHH-2; experiment: Induction of cell cycle arrest in human DOHH-2 cells assessed as accumulation of cells at G2-M phase at 0.25 uM incubated for 24 hrs by PI staining based flow cytometry analysis (reference value: 27.8%); format: functional
[15] = system: DOHH-2; experiment: Induction of apoptosis in human DOHH-2 cells assessed as late apoptotic cells at 2.5 uM measured after 48 hrs by annexin-V/FITC and PI staining based flow cytometry analysis (reference value: 3.66%); format: functional
[16] = Subacute toxicity in Balb/C mouse assessed as effect on platelet at 30 mg/kg, iv administered three times in a week for 2 weeks; format: organism-based; conditions: in vivo, 336 h
[17] = Downregulation of FAS methylation level in human DOHH-2 cells at 100 nM measured after 6 days by PCR analysis relative to control; format: functional; conditions: time 6 day
[18] = system: TMD8; experiment: Induction of cell cycle arrest in human TMD8 cells assessed as accumulation of cells at G2/M phase at 0.5 uM incubated for 24 hrs by PI staining based flow cytometry analysis (reference value: 20.4%); format: functional
[19] = system: NCI-H1299; experiment: Antiproliferative activity against human NCI-H1299 cells assessed as inhibition of cell viability measured after 72 hrs by MTT assay; format: functional, cell-based; conditions: NCI-H1299, 72 h
[20] = system: DOHH-2; experiment: Induction of apoptosis in human DOHH-2 cells assessed as early apoptotic cells measured after 48 hrs by annexin-V/FITC and PI staining based flow cytometry analysis; format: functional, cell-based; conditions: dose 0.25-5 µM
[21] = system: DOHH-2; experiment: Induction of apoptosis in human DOHH-2 cells assessed as early apoptotic cells at 5 uM measured after 48 hrs by annexin-V/FITC and PI staining based flow cytometry analysis (reference value: 5.69%); format: functional
[22] = system: HT-29; experiment: Antiproliferative activity against human HT-29 cells assessed as inhibition of cell viability measured after 72 hrs by MTT assay; format: functional, cell-based; conditions: HT-29, 72 h
[23] = AUC (0 to t) in Sprague-Dawley rat at 10 mg/kg, po measured upto 24 hrs by LC/MS/MS analysis; format: ADME, organism-based; conditions: Sprague-Dawley, in vivo
[24] = system: TMD8; experiment: Antiproliferative activity against human TMD8 cells assessed as inhibition of cell viability measured after 72 hrs by MTT assay; format: functional, cell-based; conditions: TMD8, 72 h
[25] = system: HCT-116; experiment: Antiproliferative activity against human HCT-116 cells assessed as inhibition of cell viability measured after 72 hrs by MTT assay; format: functional, cell-based; conditions: HCT-116, 72 h
[26] = Cmax in Sprague-Dawley rat at 10 mg/kg, iv measured upto 24 hrs by LC/MS/MS analysis; format: ADME, organism-based; conditions: in vivo
[27] = Subacute toxicity in Balb/C mouse assessed as effect on heart at 30 mg/kg, iv administered three times in a week for 2 weeks; format: organism-based; conditions: in vivo, 336 h
[28] = system: DOHH-2; experiment: Induction of apoptosis in human DOHH-2 cells assessed as early apoptotic cells at 2.5 uM measured after 48 hrs by annexin-V/FITC and PI staining based flow cytometry analysis (reference value: 5.69%); format: functional
[29] = Subacute toxicity in Balb/C mouse assessed as effect on lung at 30 mg/kg, iv administered three times in a week for 2 weeks; format: organism-based; conditions: in vivo, 336 h
[30] = system: MDA-MB-231; experiment: Antiproliferative activity against human MDA-MB-231 cells assessed as inhibition of cell viability measured after 72 hrs by MTT assay; format: functional, cell-based; conditions: MDA-MB-231, 72 h
[31] = Volume of distribution at steady state in Sprague-Dawley rat at 10 mg/kg, po measured upto 24 hrs by LC/MS/MS analysis; format: ADME, organism-based; conditions: in vivo
[32] = Oral bioavailability in Sprague-Dawley rat at 10 mg/kg measured upto 24 hrs by LC/MS/MS analysis; format: ADME, organism-based; conditions: Sprague-Dawley, in vivo
[33] = Subacute toxicity in Balb/C mouse assessed as effect on liver at 30 mg/kg, iv administered three times in a week for 2 weeks; format: organism-based; conditions: in vivo, 336 h
[34] = Subacute toxicity in Balb/C mouse assessed as effect on hematocrit at 30 mg/kg, iv administered three times in a week for 2 weeks; format: organism-based; conditions: in vivo, 336 h
[35] = molecular target: T1, DNA (cytosine-5)-methyltransferase 1; experiment: Inhibition of DNMT1 (unknown origin) preincubated for 15 mins followed by substrate and [3H-SAM] addition and measured after 60 mins by microbeta analysis
[36] = Subacute toxicity in Balb/C mouse assessed as effect on spleen at 30 mg/kg, iv administered three times in a week for 2 weeks; format: organism-based; conditions: in vivo, 336 h
[37] = Subacute toxicity in Balb/C mouse assessed as effect on hemoglobin at 30 mg/kg, iv administered three times in a week for 2 weeks; format: organism-based; conditions: in vivo, 336 h
[38] = molecular target: T1, DNA (cytosine-5)-methyltransferase 1; experiment: Inhibition of DNMT1 in human DOHH-2 cells assessed as inhibition of H3K9 methylation level at 1 uM incubated for 48 hrs by Western blot analysis; format: cell-based

T1 sequence (P26358 whole entry): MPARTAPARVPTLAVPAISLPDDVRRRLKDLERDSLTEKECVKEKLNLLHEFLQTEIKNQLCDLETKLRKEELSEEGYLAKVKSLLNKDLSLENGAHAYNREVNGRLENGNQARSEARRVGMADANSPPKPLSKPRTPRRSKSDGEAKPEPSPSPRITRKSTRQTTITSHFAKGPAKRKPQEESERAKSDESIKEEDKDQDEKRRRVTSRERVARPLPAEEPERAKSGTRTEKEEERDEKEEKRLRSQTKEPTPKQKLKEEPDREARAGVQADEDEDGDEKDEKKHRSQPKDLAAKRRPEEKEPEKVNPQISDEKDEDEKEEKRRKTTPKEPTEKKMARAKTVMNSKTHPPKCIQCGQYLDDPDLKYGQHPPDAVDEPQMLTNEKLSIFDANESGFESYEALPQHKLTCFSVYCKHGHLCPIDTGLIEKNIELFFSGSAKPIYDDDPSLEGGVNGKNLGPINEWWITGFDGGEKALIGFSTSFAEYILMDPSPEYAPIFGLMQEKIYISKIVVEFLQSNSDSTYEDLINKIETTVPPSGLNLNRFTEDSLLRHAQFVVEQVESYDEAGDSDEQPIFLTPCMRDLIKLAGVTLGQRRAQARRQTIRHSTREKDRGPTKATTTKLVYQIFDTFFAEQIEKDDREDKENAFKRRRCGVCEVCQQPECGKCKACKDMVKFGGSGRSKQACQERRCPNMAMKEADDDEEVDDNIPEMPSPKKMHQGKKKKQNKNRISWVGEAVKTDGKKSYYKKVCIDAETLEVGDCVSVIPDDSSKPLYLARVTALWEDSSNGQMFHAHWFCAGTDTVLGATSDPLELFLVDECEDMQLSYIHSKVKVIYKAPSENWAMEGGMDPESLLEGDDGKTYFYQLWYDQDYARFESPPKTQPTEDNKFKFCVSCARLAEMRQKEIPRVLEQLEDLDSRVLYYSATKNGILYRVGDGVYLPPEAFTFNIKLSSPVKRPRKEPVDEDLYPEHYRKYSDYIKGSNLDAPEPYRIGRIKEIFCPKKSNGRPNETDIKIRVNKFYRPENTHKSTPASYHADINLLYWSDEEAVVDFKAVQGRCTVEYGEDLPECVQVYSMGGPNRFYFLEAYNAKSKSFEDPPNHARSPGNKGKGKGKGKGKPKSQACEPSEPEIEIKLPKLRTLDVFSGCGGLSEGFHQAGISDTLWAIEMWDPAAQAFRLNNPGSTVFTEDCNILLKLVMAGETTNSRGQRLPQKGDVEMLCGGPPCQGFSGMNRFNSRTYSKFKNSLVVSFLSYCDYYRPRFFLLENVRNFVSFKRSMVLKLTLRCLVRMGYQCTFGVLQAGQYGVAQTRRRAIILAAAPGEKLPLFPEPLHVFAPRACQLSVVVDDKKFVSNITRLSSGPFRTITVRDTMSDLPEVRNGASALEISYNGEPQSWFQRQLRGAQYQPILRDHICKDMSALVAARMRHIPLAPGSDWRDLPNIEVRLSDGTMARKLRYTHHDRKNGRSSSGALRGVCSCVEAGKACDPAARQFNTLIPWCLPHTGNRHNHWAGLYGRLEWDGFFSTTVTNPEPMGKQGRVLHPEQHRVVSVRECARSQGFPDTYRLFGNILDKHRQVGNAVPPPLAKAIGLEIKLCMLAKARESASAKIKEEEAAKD

Structure (SMILES): CN1CCC(Nc2nc(-c3ccnc(F)c3)nc3c2ccn3CCCN2CCCC2)CC1
- IC50 [1]: 570 nM
- IC50 [2]: 2210 nM
- Activity [3]: 19.9%
- IC50 [4]: 2880 nM
- half-life [5]: 1310 min
- inhibition [6]: Active
- Activity [7]: 32%
- IC50 [8]: 1060 nM
- Activity [9]: -0.9%
- IC50 [10]: 950 nM
- Activity [11]: 38.2%
- Activity [12]: 6.8%
- IC50 [13]: 540 nM
- Activity [14]: 29.9%
- Activity [15]: 23.5%
- Activity [16]: Non-toxic
- Activity [17]: 54.2%
- Activity [18]: 28.8%
- IC50 [19]: 2380 nM
- Activity [20]: Dose-dependent-effect
- Activity [21]: 44.7%
- IC50 [22]: 1060 nM
- AUC(0-t) at 24 h [23]: 236 ng·h/mL
- IC50 [24]: 500 nM
- IC50 [25]: 720 nM
- Cmax [26]: 419 ng/mL
- Activity [27]: Non-toxic
- Activity [28]: 33.7%
- Activity [29]: Non-toxic
- IC50 [30]: 3.91 µM
- Vdss [31]: 574.7 L/kg
- bioavailability [32]: 23.4%
- Activity [33]: Non-toxic
- Activity [34]: Non-toxic
- IC50 [35]: 2420 nM
- Activity [36]: Non-toxic
- Activity [37]: Non-toxic
- inhibition [38]: Active
